# Laboratory results published in patent US9642861B2, “Methods of treating oral mucositis” (priority 2006, dated 2017).
# Read-outs that look alike come from different tables or passages of the source.
# Legend:
# [1] = assay type: in vivo; settings: for Survival (animal recorded dead in weight table): first study; for survival status noted in Animal Weights table: second study, group 3
# Source text: All animals were weighed daily and their survival recorded, in order to assess possible differences in animal weight among treatment groups as an indication for mucositis severity and/or possible toxicity resulting from the treatments.
# All forty-eight (48) male Syrian Golden Hamsters were given an acute radiation dose of 40 Gy directed to their left buccal cheek pouch. This was accomplished by anesthetizing the animals and everting the left buccal pouch, while protecting the rest of the animal with a lead shield. Test materials were given either topically or by ip injection twice daily as detailed in Table 1. Mucositis was evaluated clinically starting on day 6, and continuing on alternate days until day 28. The study timeline is depicted in FIG. 1. Dose levels were determined based on the results of a previous acute toxicity study (data not shown), and the levels shown in Table 1.
# Male LVG Syrian Golden Hamsters (Charles River Laboratories), aged 5 to 6 weeks, with average body weight of 84.1 g at study commencement, were used. Animals were individually numbered using an ear punch and housed in small groups of approximately 8 animals per cage. Animals were acclimatized prior to study commencement. During this period of 2 days, the animals were observed daily in order to reject animals that presented in poor condition.
# The significance of these differences was evaluated by calculating the mean area under the curve for the percentage weight gain for each animal and comparing the groups using a OneWay ANOVA test. There was a significant difference between the control group and group 3 treated by ip injection with M40403 twice daily (30 mg/kg) on days −1 to 15 (P<0.001). There was also a significant difference between the control group and the group treated by ip injection with M40403 twice daily at 30 mg/kg/dose from day −1 to day 3 (P=0.018). No other significant differences were seen. […] Many of the groups with a significant reduction in weight gain are the same groups in which animal deaths were observed.
# [2] = tested on: animal model of rheumatoid arthritis; settings: rat, in vivo; cited from earlier work
structure (smiles),measurement,setting,value
[Cl-].[Cl-].[Mn+2].c1cc2nc(c1)CN[C@@H]1CCCC[C@H]1NCCN[C@@H]1CCCC[C@H]1NC2 [M40403],Survival (animal recorded dead in weight table),"[1]; Group 2, day 0",dead
same,Survival (animal recorded dead in weight table),"[1]; Group 5, day 0",dead
same,Survival (animal recorded dead in weight table),"[1]; Group 6, day 0",dead
same,deaths during the study,"[1]; group 3: ip 30 mg/kg bid day −1 to 15, hamster 19, after extended failure to gain weight",died on day 12
same,deaths during the study,"[1]; group 6: ip 30 mg/kg bid day −1 to 3, appeared to be anesthesia overdose",two
same,"average weight gain, % of starting weight by day 28","[1]; hamster, in vivo, ip, 3 mg/kg",66.0%
same,weight gain during dosing,"[1]; hamster, in vivo, ip, 30 mg/kg",general lack of weight gain during dosing
same,toxicity based on mortality and body weight,[1]; ip injections twice daily at 30 mg/kg,appear to show some toxicity
same,survival status noted in Animal Weights table,"[1]; animal 19, day 12",dead
same,survival status noted in Animal Weights table,"[1]; animal 23, day 0",dead
same,efficacy in an animal model of rheumatoid arthritis,[2],effective
